From the Kinase Knowledgebase extract (Sharma et al. 2016)

Experiments:
[1] = biological target: PIK3CD (Human) (UniProt O00329); experiment: Assessment of PIK3CD Kinase Activity
[2] = biological target: PIK3CG (human) (UniProt P48736); experiment: Assessment of PIK3CG Kinase Activity
[3] = biological target: PIK3CB (Human) (UniProt P42338); experiment: Assessment of PIK3CB Kinase Activity
[4] = biological target: PIK3CA (human) (UniProt P42336); experiment: Assessment of PIK3CA Kinase Activity
Sequence of PIK3CA (human) (P42336 whole entry, looked up): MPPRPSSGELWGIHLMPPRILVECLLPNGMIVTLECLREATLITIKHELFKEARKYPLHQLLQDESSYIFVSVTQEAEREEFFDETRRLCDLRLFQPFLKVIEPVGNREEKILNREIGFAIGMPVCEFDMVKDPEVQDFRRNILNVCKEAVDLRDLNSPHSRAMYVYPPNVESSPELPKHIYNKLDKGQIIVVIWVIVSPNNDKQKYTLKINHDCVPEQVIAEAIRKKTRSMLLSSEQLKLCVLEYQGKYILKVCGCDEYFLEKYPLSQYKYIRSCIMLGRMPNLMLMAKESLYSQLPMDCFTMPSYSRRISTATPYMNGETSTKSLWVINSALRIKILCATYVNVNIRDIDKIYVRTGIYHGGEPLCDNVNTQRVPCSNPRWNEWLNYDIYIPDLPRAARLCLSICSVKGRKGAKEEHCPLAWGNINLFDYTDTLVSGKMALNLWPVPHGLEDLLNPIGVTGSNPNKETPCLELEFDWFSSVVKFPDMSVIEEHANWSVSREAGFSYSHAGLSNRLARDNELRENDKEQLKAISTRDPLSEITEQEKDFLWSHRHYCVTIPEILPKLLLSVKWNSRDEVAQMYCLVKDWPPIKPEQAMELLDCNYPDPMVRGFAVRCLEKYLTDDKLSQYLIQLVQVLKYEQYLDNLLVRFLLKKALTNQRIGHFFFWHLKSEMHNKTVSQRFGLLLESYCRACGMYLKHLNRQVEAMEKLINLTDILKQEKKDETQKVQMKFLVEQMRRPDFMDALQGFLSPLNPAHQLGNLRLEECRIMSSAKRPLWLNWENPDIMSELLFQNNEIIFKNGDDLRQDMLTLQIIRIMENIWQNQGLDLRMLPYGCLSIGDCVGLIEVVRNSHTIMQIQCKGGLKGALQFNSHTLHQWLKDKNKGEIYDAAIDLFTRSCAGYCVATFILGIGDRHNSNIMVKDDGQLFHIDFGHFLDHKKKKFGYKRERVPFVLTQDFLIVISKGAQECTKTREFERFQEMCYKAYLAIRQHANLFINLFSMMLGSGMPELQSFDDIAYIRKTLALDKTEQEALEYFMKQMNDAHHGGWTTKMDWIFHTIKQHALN

Sequence of PIK3CD (Human) (O00329 whole entry, looked up): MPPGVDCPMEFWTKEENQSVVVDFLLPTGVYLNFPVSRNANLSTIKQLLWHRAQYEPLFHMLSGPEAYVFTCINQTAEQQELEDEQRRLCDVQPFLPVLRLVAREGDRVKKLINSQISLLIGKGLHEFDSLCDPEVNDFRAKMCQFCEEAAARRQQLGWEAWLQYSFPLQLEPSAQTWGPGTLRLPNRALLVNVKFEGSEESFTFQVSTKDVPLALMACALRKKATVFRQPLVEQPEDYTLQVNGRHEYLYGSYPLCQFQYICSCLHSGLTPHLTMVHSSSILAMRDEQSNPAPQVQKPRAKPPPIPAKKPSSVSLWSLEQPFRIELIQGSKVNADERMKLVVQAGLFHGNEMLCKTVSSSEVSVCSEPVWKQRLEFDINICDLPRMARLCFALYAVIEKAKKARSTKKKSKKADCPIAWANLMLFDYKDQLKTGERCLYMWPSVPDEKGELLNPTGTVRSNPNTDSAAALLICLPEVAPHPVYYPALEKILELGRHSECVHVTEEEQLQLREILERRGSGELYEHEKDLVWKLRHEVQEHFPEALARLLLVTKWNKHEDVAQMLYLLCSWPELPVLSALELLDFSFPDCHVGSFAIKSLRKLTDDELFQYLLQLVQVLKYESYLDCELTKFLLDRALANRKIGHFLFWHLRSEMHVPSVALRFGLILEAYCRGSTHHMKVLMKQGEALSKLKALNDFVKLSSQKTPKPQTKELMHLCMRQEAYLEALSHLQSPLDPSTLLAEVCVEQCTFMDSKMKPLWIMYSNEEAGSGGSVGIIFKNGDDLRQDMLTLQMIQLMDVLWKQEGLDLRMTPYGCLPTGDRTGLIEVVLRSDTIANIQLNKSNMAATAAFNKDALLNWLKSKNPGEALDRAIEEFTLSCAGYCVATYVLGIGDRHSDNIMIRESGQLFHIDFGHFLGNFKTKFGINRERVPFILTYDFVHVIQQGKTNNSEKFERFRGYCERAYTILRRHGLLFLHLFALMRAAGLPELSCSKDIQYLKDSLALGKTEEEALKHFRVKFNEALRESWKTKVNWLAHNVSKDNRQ
Sequence of PIK3CG (human) (P48736 whole entry, looked up): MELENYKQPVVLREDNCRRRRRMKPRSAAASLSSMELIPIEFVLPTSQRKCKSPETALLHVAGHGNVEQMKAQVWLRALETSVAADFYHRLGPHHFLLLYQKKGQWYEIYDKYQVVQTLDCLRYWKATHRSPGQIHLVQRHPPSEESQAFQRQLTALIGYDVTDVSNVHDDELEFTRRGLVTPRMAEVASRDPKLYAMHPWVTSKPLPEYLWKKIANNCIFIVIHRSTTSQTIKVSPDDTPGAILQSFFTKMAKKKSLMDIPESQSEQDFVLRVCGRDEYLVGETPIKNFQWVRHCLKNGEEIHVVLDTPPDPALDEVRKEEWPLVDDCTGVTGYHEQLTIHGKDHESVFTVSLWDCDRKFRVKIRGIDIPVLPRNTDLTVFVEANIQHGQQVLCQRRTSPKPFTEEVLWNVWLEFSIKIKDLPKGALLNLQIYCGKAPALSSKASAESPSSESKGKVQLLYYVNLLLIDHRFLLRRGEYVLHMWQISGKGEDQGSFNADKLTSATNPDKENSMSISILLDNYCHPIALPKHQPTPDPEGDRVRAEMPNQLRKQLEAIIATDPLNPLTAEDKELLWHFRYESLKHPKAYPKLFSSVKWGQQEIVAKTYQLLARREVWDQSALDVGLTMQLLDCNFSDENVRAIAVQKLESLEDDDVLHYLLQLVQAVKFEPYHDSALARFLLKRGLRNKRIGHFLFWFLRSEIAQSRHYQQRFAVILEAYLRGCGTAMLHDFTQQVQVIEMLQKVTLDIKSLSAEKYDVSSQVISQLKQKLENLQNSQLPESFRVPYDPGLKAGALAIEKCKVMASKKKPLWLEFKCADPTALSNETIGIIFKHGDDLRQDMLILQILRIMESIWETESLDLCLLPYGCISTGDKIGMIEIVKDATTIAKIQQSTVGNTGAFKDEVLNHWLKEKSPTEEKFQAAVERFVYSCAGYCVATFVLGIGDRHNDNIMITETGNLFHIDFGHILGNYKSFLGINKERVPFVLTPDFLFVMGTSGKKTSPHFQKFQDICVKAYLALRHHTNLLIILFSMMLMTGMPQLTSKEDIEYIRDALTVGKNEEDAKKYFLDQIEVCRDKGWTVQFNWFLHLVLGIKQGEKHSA
Sequence of PIK3CB (Human) (P42338 whole entry, looked up): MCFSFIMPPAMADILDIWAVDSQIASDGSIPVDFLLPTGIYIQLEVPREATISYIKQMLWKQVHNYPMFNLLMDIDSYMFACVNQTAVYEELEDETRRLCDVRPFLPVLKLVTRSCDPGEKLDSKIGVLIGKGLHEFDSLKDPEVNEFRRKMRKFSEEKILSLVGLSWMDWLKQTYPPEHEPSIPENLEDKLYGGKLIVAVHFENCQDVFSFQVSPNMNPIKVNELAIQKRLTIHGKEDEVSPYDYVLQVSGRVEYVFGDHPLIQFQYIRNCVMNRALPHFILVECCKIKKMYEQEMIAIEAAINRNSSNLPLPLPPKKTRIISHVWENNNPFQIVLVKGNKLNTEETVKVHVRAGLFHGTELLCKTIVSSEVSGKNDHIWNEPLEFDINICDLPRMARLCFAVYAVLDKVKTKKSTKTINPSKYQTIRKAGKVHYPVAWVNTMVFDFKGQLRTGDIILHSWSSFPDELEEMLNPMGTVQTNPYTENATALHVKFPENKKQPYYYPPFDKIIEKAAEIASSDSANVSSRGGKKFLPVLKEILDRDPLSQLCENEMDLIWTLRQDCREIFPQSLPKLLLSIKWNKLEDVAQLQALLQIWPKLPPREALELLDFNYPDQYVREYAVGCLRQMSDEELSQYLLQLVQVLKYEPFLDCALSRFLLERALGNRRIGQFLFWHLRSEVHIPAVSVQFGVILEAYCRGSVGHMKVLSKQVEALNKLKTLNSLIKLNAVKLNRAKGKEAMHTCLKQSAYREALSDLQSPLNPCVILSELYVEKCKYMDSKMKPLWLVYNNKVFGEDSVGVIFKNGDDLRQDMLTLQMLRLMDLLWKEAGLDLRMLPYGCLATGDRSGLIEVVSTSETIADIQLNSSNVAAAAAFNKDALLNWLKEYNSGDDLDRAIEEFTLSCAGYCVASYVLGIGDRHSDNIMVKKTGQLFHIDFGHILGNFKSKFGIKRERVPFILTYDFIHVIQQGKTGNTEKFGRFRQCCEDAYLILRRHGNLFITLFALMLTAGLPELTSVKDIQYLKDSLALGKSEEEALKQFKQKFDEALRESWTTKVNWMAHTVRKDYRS

Structure (SMILES) | IC50 [1] [nM] | IC50 [2] [nM] | IC50 [3] [nM] | IC50 [4] [nM]
C[C@H](Nc1ncnc2cccnc12)c1cc2cccc(C(=O)O)c2c(=O)n1-c1ccccc1 | > 10000 | 100 to 1000 | > 10000 | > 10000
C[C@H](Nc1nc(O)nc2[nH]cnc12)c1cc2cccc(C(F)(F)F)c2c(=O)n1-c1cccc(F)c1 | > 10000 | > 10000 | > 10000 | > 10000
C[C@H](Nc1nc(Cl)nc2cccnc12)c1cc2cccc(-c3cnn(C)c3)c2c(=O)n1C1CC1 | 100 to 1000 | 100 to 1000 | > 10000 | > 10000
C[C@H](Nc1nc(N)nc2cccnc12)c1nc2cccc(Cl)c2c(=O)n1-c1ccccc1 | < 100 | < 100 | 100 to 1000 | 100 to 1000
C[C@H](Nc1ccnc2ccnn12)c1cc2scc(-c3cnn(C)c3)c2c(=O)n1-c1ccccc1 | 100 to 1000 | 100 to 1000 | > 10000 | > 10000
C[C@H](Nc1ncnc2cnccc12)c1cc2cccc(Cl)c2c(=O)n1-c1ccccc1 | > 10000 | > 10000 | > 10000 | > 10000
C[C@H](Nc1nc(N)nc2[nH]cnc12)c1cc2cccc(C(F)(F)F)c2c(=O)n1-c1ccccc1 | < 100 | < 100 | < 100 | 100 to 1000
C[C@H](Nc1ncnc2cccnc12)c1cc2cccc(Cl)c2c(=O)n1C1CC1 | < 100 | < 100 | < 100 | 100 to 1000
C[C@H](Nc1nc(Cl)nc2cccnc12)c1cc2cccc(-c3cnn(C)c3)c2c(=O)n1-c1ccccc1 | 100 to 1000 | < 100 | > 10000 | > 10000
C[C@@H](c1cc2cccc(Cl)c2c(=O)n1-c1ccccc1)n1c(=O)[nH]c2cnc(N)nc21 | > 10000 | > 10000 | > 10000 | > 10000
CNc1nc(N[C@@H](C)c2cc3cccc(NC)c3c(=O)n2-c2ccccc2)c2ncccc2n1 | 100 to 1000 | < 100 | > 10000 | > 10000
C[C@H](Nc1nc(N)nc2cccnc12)c1cc2cccc(Cl)c2c(=O)n1-c1ccc(F)cc1 | < 100 | < 100 | < 100 | 100 to 1000
C[C@H](Nc1ncnn2cncc12)c1cc2cccc(C(F)(F)F)c2c(=O)n1-c1ccccc1 |  | > 10000 | > 10000 | > 10000
C[C@H](Nc1ccnn2ccnc12)c1cc2scc(-c3cnn(C)c3)c2c(=O)n1-c1ccccc1 | 100 to 1000 | 100 to 1000 | > 10000 | > 10000
COc1ncc(-c2cccc3cc([C@H](C)Nc4nc(N)nc5cccnc45)n(-c4cccc(F)c4)c(=O)c23)cn1 | < 100 | < 100 | > 10000 | > 10000
C[C@H](Nc1nc(Cl)nc2cccnc12)c1cc2cccc(Cl)c2c(=O)n1-c1ccccc1 |  | < 100 | > 10000 | > 10000
C[C@H](Nc1nc(Cl)nc2cccnc12)c1cc2cccc(C(F)(F)F)c2c(=O)n1-c1ccccc1 |  | 100 to 1000 | > 10000 | > 10000
Cc1ncc(-c2cccc3cc([C@H](C)Nc4ncnc5cccnc45)n(-c4ccccc4)c(=O)c23)cn1 | < 100 | < 100 | > 10000 | > 10000
C[C@H](Nc1ncnn2cncc12)c1cc2cccc(Cl)c2c(=O)n1-c1cccc(F)c1 |  | > 10000 | > 10000 | > 10000
C[C@H](Nc1ncnc2cc(F)ccc12)c1cc2cccc(Cl)c2c(=O)n1-c1ccccc1 | > 10000 | > 10000 | > 10000 | > 10000
COc1ncc(-c2cccc3cc([C@H](C)Nc4cc(N)nc5ccnn45)n(-c4ccccc4)c(=O)c23)cn1 | < 100 | 100 to 1000 | > 10000 | > 10000
C[C@H](NCc1cccnc1N)c1cc2cccc(Cl)c2c(=O)n1-c1ccccc1 | > 10000 | > 10000 | > 10000 | > 10000
COc1ncc(-c2cccc3cc([C@H](C)Nc4ccnc5ccnn45)n(-c4ccccc4)c(=O)c23)cn1 | < 100 | 100 to 1000 | > 10000 | > 10000
C[C@H](Nc1ncnc2cc(F)c(F)cc12)c1cc2cccc(Cl)c2c(=O)n1-c1ccccc1 | > 10000 | > 10000 | > 10000 | > 10000
C[C@H](Nc1ncnc2cccnc12)c1cc2ccc(F)c(Cl)c2c(=O)n1-c1ccccc1 | < 100 | < 100 | 100 to 1000 | 100 to 1000
C[C@H](NCc1cnc2cccnn12)c1cc2cccc(Cl)c2c(=O)n1-c1ccccc1 |  | > 10000 | > 10000 | > 10000
C[C@H](Nc1nc(N)nc2cccnc12)c1cc2cccc(N(C)C)c2c(=O)n1-c1ccccc1 |  | 100 to 1000 | > 10000 | > 10000
